Data from US8895753B2, “S1P receptor modulating agent” (Meiji Seika Pharma Co., Ltd., priority 2011, dated 2014).

Assays:
Human S1P1 receptor = Human S1P1 receptor (Homo sapiens, UniProt P21453); experiment: Agonist activity at an S1P1 receptor ([35S]-GTPγS exchange reaction, membrane fractions); format: biochemical; conditions: read-out: EC50, agonist activity at S1P1 receptor (GTP exchange reaction)
Procedure: By using membrane fractions prepared from a human S1P1 receptor expressing cells (Multispan Ltd.), the agonist activity of each test compound was measured by [^35S]-GTPγS exchange reaction in accordance with a standard procedure (Methods in Molecular Biology, Vol. 552, p 143-151 (2009)), and EC50 (nM) of each test compound was computed.

Human S1P3 receptor [1] = biological target: T1, Human S1P3 receptor (Homo sapiens, UniProt Q99500); experiment: Agonist activity at a S1P3 receptor (reporter assay, EDG3-Galpha15-NFAT-bla HEK293T cells); format: cell-based
Procedure: Human S1P3 receptor gene recombinant EDG3-Galpha15-NFAT-bla HEK293T cells (Life Technologies Japan Ltd.) were plated into a 384-well clear bottom black plate treated with poly-D-lysine at a density of 1000 cells/32 μL/well, and the plate was cultured at 37° C. in a 5% CO2 incubator for 16-24 hours. A culture medium containing each test compound prepared as a 5× concentrate was added at 8 μL/well, and the plate was incubated at 37° C. in a 5% CO2 incubator for 5 hours. The substrate (LiveBLAzer™-FRET B/G substrate (CCF4-AM), Life Technologies Japan Ltd.) was prepared as a 6× concentrate was added at 8 μL to each well, and the plate was incubated at room temperature for 2 hours in the dark. The fluorescence intensity of the test samples was measured using a bottom-reading fluorescence microplate reader at one excitation wavelength and 2 wavelengths for fluorescence emission (Ex409 nm, Em460 nm, Em530 nm). The intensity ratio of fluorescence at 460 nm/530 nm was calculated for the compound at each well. The maximum response ratio confirmed from the dose response of S1P was expressed as 100%. The concentration of test compounds required to stimulate 50% of its maximal activation was computed as EC50 (nM).

Human S1P3 receptor [2] = biological target: T1, Human S1P3 receptor; experiment: Agonist activity at an S1P3 receptor ([35S]-GTPγS exchange reaction at 1000 nM); format: biochemical; conditions: read-out: percent of the maximal agonist activity at S1P3 receptor
Method in brief: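 Agonism measured by [35S]-GTPγS exchange in membranes from human S1P3-expressing cells, compound tested at 1000 nM.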

Human S1P4 receptor [3] = biological target: T2, Human S1P4 receptor (Homo sapiens, UniProt O95977); experiment: Agonist activity at a S1P4 receptor (reporter assay, EDG6-bla/U2OS cells); format: cell-based
T2 sequence (O95977 1-384): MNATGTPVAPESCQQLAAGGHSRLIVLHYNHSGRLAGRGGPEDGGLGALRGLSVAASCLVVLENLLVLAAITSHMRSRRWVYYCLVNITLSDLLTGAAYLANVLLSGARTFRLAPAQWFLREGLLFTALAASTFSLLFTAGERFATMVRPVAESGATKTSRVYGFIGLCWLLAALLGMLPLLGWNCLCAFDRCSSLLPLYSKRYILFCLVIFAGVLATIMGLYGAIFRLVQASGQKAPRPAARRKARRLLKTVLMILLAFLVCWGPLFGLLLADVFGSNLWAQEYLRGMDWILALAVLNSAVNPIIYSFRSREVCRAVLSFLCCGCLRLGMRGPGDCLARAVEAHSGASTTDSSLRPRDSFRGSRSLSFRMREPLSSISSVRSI
Procedure: Human S1P4 receptor gene recombinant EDG6-bla/U2OS cells (Life Technologies Japan Ltd.) were seeded into each well of a 384-well clear bottom black plate treated with poly-D-lysine at a density of 10000 cells/32 μL/well and cultured at 37° C. in a 5% CO2 incubator for 16 to 24 hours. A culture medium containing each test compound prepared as a 5× concentrate was added at 8 μL/well, and the plate was cultured at 37° C. in a 5% CO2 incubator for 5 hours. The substrate (LiveBLAzer™-FRET B/G substrate (CCF4-AM), Life Technologies Japan Ltd.) prepared as a 6× concentrate was added at 8 μL to each well, and the plate was incubated for 2 hours in the dark. The fluorescence intensity of the test samples was measured using bottom-reading fluorescence microplate reader at one excitation wavelength and 2 wavelengths for fluorescence emission (Ex409 nm, Em460 nm, Em530 nm). The intensity ratio of fluorescence at 460 nm/530 nm was calculated for each well. The maximum response ratio confirmed from the dose response of S1P was expressed as 100%. The concentration of the test compound required to stimulate 50% of its maximal activation was computed as EC50 (nM).

Human S1P4 receptor [4] = biological target: T2, Human S1P4 receptor; experiment: Agonist activity at an S1P4 receptor (calcium influx); format: cell-based; conditions: at 1000 nM; read-out: activity at S1P4 receptor (elevation of intracellular calcium)
Procedure: By using Human S1P4 receptor expressing cells (Multispan Inc. CG1052-1), the elevation of intracellular calcium concentration via agonist activity by the addition of 1000 nM was measured by Fret method (fluorescence resonance energy transfer).

Human S1P5 receptor = biological target: T3, Human S1P5 receptor (Homo sapiens, UniProt Q9H228); experiment: Agonist activity at an S1P5 receptor (reporter assay, EDG8-bla/U2OS cells); format: cell-based
T3 construct: host or cells: U2OS (EDG8-bla/U2OS)
Procedure: Human S1P5 receptor gene recombinant EDG8-bla/U2OS cells (Life Technologies Japan Ltd.) were plated in a 384-well clear bottom black plate at 10000 cells/32 μL/well, and the plate was incubated at 37° C. in a 5% CO2 incubator for 48 hours. A culture containing each test compound prepared as a 5× concentrate was added at 8 μL/well, and the plate was incubated at 37° C. in a 5% CO2 incubator for 5 hours. The substrate (LiveBLAzer™-FRET B/G substrate (CCF4-AM), Life Technologies Japan Ltd.) prepared as a 6× concentrate was added at 8 μL to each well, and the plate was incubated at room temperature for 2 hours in the dark. The fluorescence intensity of each well was measured using a bottom-reading fluorescence microplate reader at one excitation wavelength and 2 wavelengths for fluorescence emission (Ex409 nm, Em460 nm, Em530 nm). The intensity ratio of fluorescence at 460 nm/530 nm was calculated for each well. The maximum response ratio confirmed from the dose response of S1P was expressed as 100%. The concentration of test compound required to stimulate 50% of its maximal activation was determined as EC50 (nM).

heart rate = experiment: Evaluation of the heart rate in a rat (under consciousness); format: in vivo; conditions: conscious rat, vascularly administered at 6 mg/kg body weight
Procedure: Under anesthesia, femoral artery was cannulated in a 7-11-week old male SD rat (Charles River Laboratories Japan Inc.) that had been reared for more than one week. Arterial cannula was connected to a pressure transducer, and under consciousness changes in the heart rate were monitored with a polygraph (Nihon Kohden) up to 4 hours after the vascular administration of the vehicle (10% PEG300-0.01M KOH saline) or the test compounds. The dose that lowered the heart rate by 20% was computed as TD20 (mg/kg body weight).

T1 sequence (Q99500 whole entry): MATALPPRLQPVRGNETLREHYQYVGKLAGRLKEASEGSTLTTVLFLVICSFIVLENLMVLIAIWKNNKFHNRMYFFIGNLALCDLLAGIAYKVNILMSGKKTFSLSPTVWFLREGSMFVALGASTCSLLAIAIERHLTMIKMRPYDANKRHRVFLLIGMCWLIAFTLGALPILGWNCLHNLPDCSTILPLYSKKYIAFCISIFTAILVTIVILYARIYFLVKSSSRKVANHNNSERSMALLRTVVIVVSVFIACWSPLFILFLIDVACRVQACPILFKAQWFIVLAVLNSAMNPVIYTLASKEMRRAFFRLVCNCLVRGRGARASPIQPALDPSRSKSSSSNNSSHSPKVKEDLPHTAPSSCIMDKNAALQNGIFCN
Human S1P1 receptor, sequence (P21453 whole entry): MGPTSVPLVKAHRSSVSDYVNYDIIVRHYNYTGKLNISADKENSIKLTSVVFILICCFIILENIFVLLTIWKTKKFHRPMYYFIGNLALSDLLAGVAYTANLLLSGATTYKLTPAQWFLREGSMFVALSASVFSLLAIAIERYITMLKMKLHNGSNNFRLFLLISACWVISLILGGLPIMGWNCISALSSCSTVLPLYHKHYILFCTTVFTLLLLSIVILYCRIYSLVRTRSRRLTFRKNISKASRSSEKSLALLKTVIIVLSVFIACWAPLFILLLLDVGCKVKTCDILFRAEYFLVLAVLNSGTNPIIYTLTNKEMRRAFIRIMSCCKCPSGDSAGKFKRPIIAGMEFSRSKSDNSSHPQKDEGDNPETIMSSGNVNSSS
T3 sequence (Q9H228 whole entry): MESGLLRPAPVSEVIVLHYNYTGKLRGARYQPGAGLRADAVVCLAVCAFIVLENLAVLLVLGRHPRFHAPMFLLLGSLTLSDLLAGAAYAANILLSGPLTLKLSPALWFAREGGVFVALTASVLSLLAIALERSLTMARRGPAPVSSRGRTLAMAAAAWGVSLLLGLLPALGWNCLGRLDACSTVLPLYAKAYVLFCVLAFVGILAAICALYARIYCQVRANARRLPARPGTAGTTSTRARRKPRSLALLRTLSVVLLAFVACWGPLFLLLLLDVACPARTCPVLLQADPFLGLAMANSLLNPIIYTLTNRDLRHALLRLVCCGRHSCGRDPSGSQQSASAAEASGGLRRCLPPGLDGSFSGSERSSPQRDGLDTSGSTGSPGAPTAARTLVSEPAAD

SMILES | EC50 (Human S1P1 receptor) [nM] | EC50 (Human S1P3 receptor [1]) [nM] | Emax at 1 µM (Human S1P3 receptor [2]) [%] | EC50 (Human S1P4 receptor [3]) [nM] | activation at 1 µM (Human S1P4 receptor [4]) [%] | EC50 (Human S1P5 receptor) [nM] | suppression of the heart rate (heart rate)
CC(C)Oc1ccc(-c2cnc(-c3ccc(CN4CC(C(=O)O)C4)cc3)s2)cc1 [Example 2, 1-(4-(5-(4-isopropoxyphenyl)thiazol-2-yl)benzyl)azetidine-3-carboxylic acid] | ≤ 50 | ≥ 2000 | < 20 | ≥ 2000 | < 20 | ≥ 2000 | not recognized
CC(C)Oc1ccc(-c2cnc(-c3ccc(CN4CC(C(=O)O)C4)cc3)s2)cc1Cl [Example 3, 1-(4-(5-(3-chloro-4-isopropoxyphenyl)thiazol-2-yl)benzyl)azetidine-3-carboxylic acid] | ≤ 10 | ≥ 2000 | 20 to 50 | ≥ 2000 | < 20 | ≥ 2000 | not recognized
